Assay results taken from ChEMBL document CHEMBL1201862, “PubChem BioAssay data set” (2004).
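How tested: cells in 96-well plates exposed to compound for 48 hours at five concentrations. GI50 = concentration required for 50% inhibition of growth.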 Activity calls are given as the source filed them. No stated cut-off is given here; in the data, active = GI50 up to about 1.1 µM and inactive = higher.

How the values were obtained:
Experiment in all cases: inhibition of tumour cell growth, NCI panel, 48 h
SNB-19 = system: SNB-19
HT-29 = system: HT-29
PC-3 = system: PC-3
EKVX = system: EKVX
K562 = system: K562
Hs-578T = system: Hs-578T
SW-620 = system: SW-620
MOLT-4 = system: MOLT-4
HCT-15 = system: HCT-15
UO-31 = system: UO-31
UACC-62 = system: UACC-62
IGROV-1 = system: IGROV-1
A498 = system: A498
SK-OV-3 = system: SK-OV-3
HCC 2998 = system: HCC 2998
BT-549 = system: BT-549
NCI-H460 = system: NCI-H460
SK-MEL-5 = system: SK-MEL-5
SK-MEL-28 = system: SK-MEL-28
LOX IMVI = system: LOX IMVI
RXF 393 = system: RXF 393
MCF7 = system: MCF7
SF-268 = system: SF-268
OVCAR-8 = system: OVCAR-8
TK-10 = system: TK-10
NCI-H23 = system: NCI-H23
NCI/ADR-RES = system: NCI/ADR-RES
ACHN = system: ACHN
OVCAR-5 = system: OVCAR-5
SN12C = system: SN12C
CCRF-CEM = system: CCRF-CEM
SNB-75 = system: SNB-75
U-251 = system: U-251
NCI-H522 = system: NCI-H522
SF-295 = system: SF-295
HCT-116 = system: HCT-116
Malme-3M = system: Malme-3M
OVCAR-3 = system: OVCAR-3
786-0 = system: 786-0
DU-145 = system: DU-145
SR = system: SR
OVCAR-4 = system: OVCAR-4
NCI-H226 = system: NCI-H226
M14 = system: M14
MDA-MB-435 = system: MDA-MB-435
COLO 205 = system: COLO 205
CAKI-1 = system: CAKI-1
SF-539 = system: SF-539
SK-MEL-2 = system: SK-MEL-2
MDA-N = system: MDA-N
HL-60 = system: HL-60
RPMI-8226 = system: RPMI-8226
MDA-MB-231 = system: MDA-MB-231
UACC-257 = system: UACC-257
HOP-62 = system: HOP-62
A549 = system: A549
KM12 = system: KM12
HOP-92 = system: HOP-92
T47D = system: T47D

## Clc1ccc2sc(-n3ccc4ccccc43)nc2c1
SNB-19
  GI50: 24.2 µM (inactive)
HT-29
  GI50: 75.9 µM (inactive)
PC-3
  GI50: 67.6 µM (inactive)
EKVX
  GI50: > 100 µM (inactive)
K562
  GI50: 97.1 µM (inactive)
Hs-578T
  GI50: 72.6 µM (inactive)
SW-620
  GI50: > 100 µM (inactive)
MOLT-4
  GI50: 55.7 µM (inactive)
HCT-15
  GI50: > 100 µM
UO-31
  GI50: > 100 µM (inactive)
UACC-62
  GI50: > 100 µM (inactive)
IGROV-1
  GI50: > 100 µM (inactive)
A498
  GI50: > 100 µM (inactive)
SK-OV-3
  GI50: > 100 µM (inactive)
HCC 2998
  GI50: > 100 µM (inactive)
BT-549
  GI50: 84.3 µM (inactive)
NCI-H460
  GI50: > 100 µM (inactive)
SK-MEL-5
  GI50: > 100 µM (inactive)
SK-MEL-28
  GI50: > 100 µM (inactive)
LOX IMVI
  GI50: > 100 µM (inactive)
RXF 393
  GI50: 13.3 µM (inactive)
MCF7
  GI50: 26.1 µM (inactive)
SF-268
  GI50: > 100 µM (inactive)
OVCAR-8
  GI50: > 100 µM (inactive)
TK-10
  GI50: > 100 µM (inactive)
NCI-H23
  GI50: 45.7 µM (inactive)
NCI/ADR-RES
  GI50: > 100 µM (inactive)
ACHN
  GI50: > 100 µM (inactive)
OVCAR-5
  GI50: > 100 µM (inactive)
SN12C
  GI50: > 100 µM (inactive)
CCRF-CEM
  GI50: > 100 µM (inactive)
SNB-75
  GI50: 49.3 µM (inactive)
U-251
  GI50: > 100 µM (inactive)

## CC(C)n1c(=O)[nH]n(-c2ccccc2)c1=O
NCI-H522
  GI50: > 100 µM (inactive)
SF-295
  GI50: > 100 µM (inactive)
SNB-19
  GI50: > 100 µM (inactive)
HCT-116
  GI50: > 100 µM (inactive)
HT-29
  GI50: > 100 µM (inactive)
PC-3
  GI50: > 100 µM (inactive)
Malme-3M
  GI50: > 100 µM (inactive)
EKVX
  GI50: > 100 µM (inactive)
OVCAR-3
  GI50: > 100 µM (inactive)
786-0
  GI50: > 100 µM (inactive)
DU-145
  GI50: > 100 µM (inactive)
K562
  GI50: > 100 µM (inactive)
Hs-578T
  GI50: > 100 µM (inactive)
SW-620
  GI50: > 100 µM (inactive)
MOLT-4
  GI50: > 100 µM (inactive)
HCT-15
  GI50: > 100 µM
UO-31
  GI50: > 100 µM (inactive)
UACC-62
  GI50: > 100 µM (inactive)
SR
  GI50: > 100 µM (inactive)
OVCAR-4
  GI50: > 100 µM (inactive)
NCI-H226
  GI50: > 100 µM (inactive)
IGROV-1
  GI50: > 100 µM (inactive)
M14
  GI50: > 100 µM (inactive)
A498
  GI50: > 100 µM (inactive)
MDA-MB-435
  GI50: > 100 µM (inactive)
SK-OV-3
  GI50: > 100 µM (inactive)
COLO 205
  GI50: > 100 µM (inactive)
CAKI-1
  GI50: > 100 µM (inactive)
SF-539
  GI50: > 100 µM (inactive)
SK-MEL-2
  GI50: > 100 µM (inactive)
MDA-N
  GI50: > 100 µM (inactive)
NCI-H460
  GI50: > 100 µM (inactive)
SK-MEL-5
  GI50: > 100 µM (inactive)
SK-MEL-28
  GI50: > 100 µM (inactive)
LOX IMVI
  GI50: > 100 µM (inactive)
RXF 393
  GI50: > 100 µM (inactive)
MCF7
  GI50: > 100 µM (inactive)
HL-60
  GI50: > 100 µM (inactive)
RPMI-8226
  GI50: > 100 µM (inactive)
MDA-MB-231
  GI50: > 100 µM (inactive)
SF-268
  GI50: > 100 µM (inactive)
OVCAR-8
  GI50: > 100 µM (inactive)
TK-10
  GI50: > 100 µM (inactive)
UACC-257
  GI50: > 100 µM (inactive)
HOP-62
  GI50: > 100 µM (inactive)
NCI-H23
  GI50: > 100 µM (inactive)
NCI/ADR-RES
  GI50: > 100 µM (inactive)
A549
  GI50: > 100 µM (inactive)
ACHN
  GI50: > 100 µM (inactive)
KM12
  GI50: > 100 µM (inactive)
OVCAR-5
  GI50: > 100 µM (inactive)
HOP-92
  GI50: > 100 µM (inactive)
SN12C
  GI50: > 100 µM (inactive)
CCRF-CEM
  GI50: > 100 µM (inactive)
SNB-75
  GI50: > 100 µM (inactive)
U-251
  GI50: > 100 µM (inactive)

## COc1cc(S(=O)(=O)Nc2nc(-c3ccc(N4C(=O)C(CC(=O)O)SC4c4cccs4)cc3)cs2)ccc1Cl (configuration not stated)
NCI-H522
  GI50: 17.8 µM (inactive)
SF-295
  GI50: > 100 µM (inactive)
T47D
  GI50: 25.9 µM (inactive)
SNB-19
  GI50: 79.6 µM (inactive)
HCT-116
  GI50: 29.3 µM (inactive)
HT-29
  GI50: > 100 µM (inactive)
PC-3
  GI50: 49.1 µM (inactive)
Malme-3M
  GI50: 22.6 µM (inactive)
OVCAR-3
  GI50: 36.2 µM (inactive)
786-0
  GI50: 41.8 µM (inactive)
DU-145
  GI50: 43.5 µM (inactive)
K562
  GI50: 39 µM (inactive)
Hs-578T
  GI50: 46 µM (inactive)
SW-620
  GI50: 28.9 µM (inactive)
MOLT-4
  GI50: 29 µM (inactive)
HCT-15
  GI50: 19.9 µM
UO-31
  GI50: 19.9 µM (inactive)
UACC-62
  GI50: 23.4 µM (inactive)
SR
  GI50: 44.9 µM (inactive)
OVCAR-4
  GI50: 26.7 µM (inactive)
NCI-H226
  GI50: > 100 µM (inactive)
IGROV-1
  GI50: 27.1 µM (inactive)
M14
  GI50: > 100 µM (inactive)
A498
  GI50: > 100 µM (inactive)
MDA-MB-435
  GI50: 40 µM (inactive)
SK-OV-3
  GI50: > 100 µM (inactive)
HCC 2998
  GI50: 27 µM (inactive)
COLO 205
  GI50: > 100 µM (inactive)
CAKI-1
  GI50: 55.5 µM (inactive)
SF-539
  GI50: 27.9 µM (inactive)
SK-MEL-2
  GI50: 27.8 µM (inactive)
MDA-N
  GI50: 43.3 µM (inactive)
NCI-H460
  GI50: > 100 µM (inactive)
SK-MEL-5
  GI50: > 100 µM (inactive)
SK-MEL-28
  GI50: 70.1 µM (inactive)
LOX IMVI
  GI50: 20.3 µM (inactive)
RXF 393
  GI50: 15.7 µM (inactive)
MCF7
  GI50: 25 µM (inactive)
HL-60
  GI50: 31 µM (inactive)
MDA-MB-231
  GI50: 81.1 µM (inactive)
SF-268
  GI50: 21.9 µM (inactive)
OVCAR-8
  GI50: 39 µM (inactive)
TK-10
  GI50: 79.4 µM (inactive)
UACC-257
  GI50: 41.9 µM (inactive)
HOP-62
  GI50: 54 µM (inactive)
NCI-H23
  GI50: 22.6 µM (inactive)
NCI/ADR-RES
  GI50: 29.3 µM (inactive)
A549
  GI50: > 100 µM (inactive)
ACHN
  GI50: > 100 µM (inactive)
KM12
  GI50: 36.9 µM (inactive)
OVCAR-5
  GI50: > 100 µM (inactive)
HOP-92
  GI50: 30.9 µM (inactive)
SN12C
  GI50: 30.3 µM (inactive)
SNB-75
  GI50: 17.2 µM (inactive)
U-251
  GI50: 42.6 µM (inactive)

## Cc1ccc(N(C(=O)Nc2ccccc2)C2=NCC(C)S2)cc1C (configuration not stated)
SF-295
  GI50: 24.4 µM (inactive)
T47D
  GI50: 14.8 µM (inactive)
SNB-19
  GI50: 33.3 µM (inactive)
HCT-116
  GI50: 16.4 µM (inactive)
HT-29
  GI50: 18.2 µM (inactive)
PC-3
  GI50: 24.4 µM (inactive)
Malme-3M
  GI50: 20.3 µM (inactive)
EKVX
  GI50: 17.9 µM (inactive)
OVCAR-3
  GI50: 17.3 µM (inactive)
786-0
  GI50: 20.4 µM (inactive)
DU-145
  GI50: 31.4 µM (inactive)
K562
  GI50: 42.7 µM (inactive)
Hs-578T
  GI50: 23.2 µM (inactive)
SW-620
  GI50: 24.7 µM (inactive)
MOLT-4
  GI50: > 10 µM (inactive)
HCT-15
  GI50: 15.4 µM
UO-31
  GI50: 18.5 µM (inactive)
SR
  GI50: 23.7 µM (inactive)
OVCAR-4
  GI50: 28.9 µM (inactive)
IGROV-1
  GI50: 22.4 µM (inactive)
M14
  GI50: 13.4 µM (inactive)
A498
  GI50: 14 µM (inactive)
SK-OV-3
  GI50: 39.6 µM (inactive)
HCC 2998
  GI50: > 10 µM (inactive)
COLO 205
  GI50: 19.4 µM (inactive)
CAKI-1
  GI50: > 10 µM (inactive)
SF-539
  GI50: 20.4 µM (inactive)
SK-MEL-2
  GI50: 17.4 µM (inactive)
MDA-N
  GI50: 17.6 µM (inactive)
NCI-H460
  GI50: 18 µM (inactive)
SK-MEL-5
  GI50: 17 µM (inactive)
SK-MEL-28
  GI50: 17.5 µM (inactive)
LOX IMVI
  GI50: 16.6 µM (inactive)
MCF7
  GI50: 12.8 µM (inactive)
HL-60
  GI50: 20.1 µM (inactive)
RPMI-8226
  GI50: 20 µM (inactive)
MDA-MB-231
  GI50: 18.7 µM (inactive)
SF-268
  GI50: 24 µM (inactive)
OVCAR-8
  GI50: 29.2 µM (inactive)
TK-10
  GI50: 21 µM (inactive)
UACC-257
  GI50: > 10 µM (inactive)
HOP-62
  GI50: 53.3 µM (inactive)
NCI-H23
  GI50: 15.7 µM (inactive)
NCI/ADR-RES
  GI50: 14.8 µM (inactive)
A549
  GI50: 29 µM (inactive)
ACHN
  GI50: 28.7 µM (inactive)
KM12
  GI50: 17.8 µM (inactive)
OVCAR-5
  GI50: 23.1 µM (inactive)
HOP-92
  GI50: 22.5 µM (inactive)
SN12C
  GI50: 13.7 µM (inactive)
CCRF-CEM
  GI50: 19.6 µM (inactive)
SNB-75
  GI50: 24.4 µM (inactive)
U-251
  GI50: 19.3 µM (inactive)
